Results taken from US6815214B2, “Pharmaceutical uses and synthesis of diketopiperazines” (Celltech R & D, Inc., priority 2000, dated 2004).
Like-named read-outs stand apart in the source and are kept apart here.

Columns and labels:
[1] = molecular target: T1, CXCR2 (Homo sapiens, UniProt P25025); test: CXCR2 radioligand binding assay with 125I labeled IL-8 (Panlabs); conditions: for inhibition at 20 µM: letter following "II", read-out: Biological Activity II (CXCR2): extent of inhibition; for IC50: read-out: IC50 (after II, CXCR2)
T1 construct: host or cells: CHO cells
T1 sequence (P25025 1-360): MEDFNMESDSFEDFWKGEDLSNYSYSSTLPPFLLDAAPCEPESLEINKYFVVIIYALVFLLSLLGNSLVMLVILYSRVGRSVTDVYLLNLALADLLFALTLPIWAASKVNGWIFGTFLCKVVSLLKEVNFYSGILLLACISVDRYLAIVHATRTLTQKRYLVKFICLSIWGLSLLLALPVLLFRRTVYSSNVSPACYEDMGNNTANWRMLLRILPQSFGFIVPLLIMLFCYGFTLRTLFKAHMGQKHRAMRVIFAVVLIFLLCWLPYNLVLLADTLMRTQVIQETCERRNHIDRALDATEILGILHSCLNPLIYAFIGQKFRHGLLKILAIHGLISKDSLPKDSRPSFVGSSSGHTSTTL
Source text: This assay is a radioligand binding assay in human recombinant CHO cells with ^125I labeled IL-8 as ligand as described in The Journal of Biological Chemistry (Ahuja, S. K.; Murphy, P. M;. J. Biol. Chem. 1996, 271, 20545).

[2] = tested on: A549 cells; test: Inhibition of TNF-α-induced apoptosis in A549 cells (crystal violet); assay type: cell-based; conditions: letter following "III"; inhibition at 20 μM
Description: The protocol used for determining inhibition of apoptosis in A549 cells was adopted from a system previously described (K. Last-Barney et al, J. of Immunology, 1988, 141, 527-530). Briefly, 10^5 cells in 200 μL 10% FBS/RPMI antibiotic containing culture medium were plated into 96 well round bottom culture plates and allowed to adhere for 6 hours at 37° C. in a 5% CO2 atmosphere. The media was removed and 100 μL of RPMI+1 μg/mL actinomycin-D was added to each well, followed by 100 μL of 20 μM solution of compound in 1% DMSO. This was incubated for 1 hour. […] The media was aspirated from the plates and 100 μL of 0.5% crystal violet in 20% methanol was added. After 10 minutes the plates were rinsed with water to remove excess stain, air dried, and read on a Spectramax spectrophotometer at a wavelength of 590 nm.

## COc1cc(OC)c(CNC(=O)Cc2ccc(CN3C(=O)[C@@H]4C[C@H](NC(=O)OCC5c6ccccc6-c6ccccc65)CN4C(=O)[C@@H]3CC(=O)O)cc2)c(OC)c1
[1]
  inhibition at 20 µM: > 50%
[1]; unit μm [sic]
  IC50: 15 µM

## COC(=O)C[C@H]1C(=O)N2C[C@@H](NC(=O)c3cnc4ccccc4c3)C[C@H]2C(=O)N1Cc1ccc(CC(=O)NCc2c(OC)cc(OC)cc2OC)cc1
[2]
  Biological Activity III (apoptosis): extent of inhibition: A (A refers to >50% inhibition at 20 μM)
[1]
  inhibition at 20 µM: > 50%
  IC50: 25 µM
